Consider 17 molecules from US11667645B2, “Granzyme B directed imaging and therapy” (CytoSite Biopharma Inc., priority 2018, dated 2023).

Where only a bound is given, the exact number is not on record here.

This assay concerns the target Granzyme B (human lymphocytes) (Homo sapiens (Human), UniProt P10144). Description: human Granzyme B biochemical assay. The conditions noted are these: Granzyme B (human lymphocytes) 5 nM, substrate Ac-IETD-AFC 200 μM, Cpd incubation with enzyme 30 mins, 22° C., read time 60 mins; read-out: IC50. The text has this: The compounds of Formula I-VIII described above can be tested using the human Granzyme B biochemical assay provided below.
Materials: • 1. Granzyme B (human lymphocytes) Enzyme: Enzo Lifesciences, Cat #ALX-200-602-0010 • 2. Substrate (Ac-IETD-AFC): Enzo Lifesciences, Cat #ALX-260-110-M010 • 3. Standard inhibitor (Compound 20-Isomer3): Synthesized internally in TCG • 4. Dimethyl sulfoxide (DMSO): Sigma-Aldrich, Cat #41639 • 5. HEPES: Gibco, Cat #15630-080 • 6. Calcium chloride: Sigma-Aldrich, Cat #C-5080 • 7. Distilled water: Gibco, Cat #15230-162 • 8. Bovine serum albumin (BSA): Sigma-Aldrich, Cat #A3059 • 9. Black, clear bottom PDL plate (384 wells): Greiner bio-one, Cat #781946 • 10. Polypropylene plate (384 wells): Corning, Cat #3657 Assay Buffer Composition:
Compound Preparation: • 1. DMSO is added to the respective compound vial to make 10 mM Compound stock solution, which is stored at −20° C. • 2. 10 mM Compound stock solution is thawed and 1 mM DMSO stock solution is prepared by adding 45 μl of DMSO to 5 μl of 10 mM compound stock solution. • 3. 1 mM DMSO stock solution is serially diluted (3.16 fold) by adding 10 μl of 1 mM DMSO stock to 21.6 μl of DMSO and mixed well. 10 μl of the resulting solution is then added to 21.6 μl of DMSO and mixed well. This process is continued to create 11 dilution points for the assay standard inhibitor and 8 dilution points for test compounds in 384 well polypropylene plate. • 4. 2 μl of each dilution are dispensed in assay ready plate. • 5. Each well is then diluted 25 fold by adding 48 μl of assay buffer to 2 μl of compound in assay ready plate to make Compound working stock. Enzyme Preparation: • 1. Supplied Granzyme B (human lymphocytes) enzyme is reconstituted to 1 mg/ml (about 31.25 μM) and 1 μl aliquots are kept in −80° C. • 2. 1 μl aliquot is diluted to 625 nM by adding 49 μl of assay buffer containing 0.1% BSA and gently mixed. • 3. 10 nM enzyme working stock is prepared by adding assay buffer containing 0.1% BSA. Substrate Preparation: • 1. Supplied substrate (Ac-IETD-AFC) is reconstituted by adding DMSO to make 10 mM stock, aliquoted and stored in −80° C. • 2. 4 mM substrate mid stock is prepared by adding DMSO. • 3. Substrate working stock i.e. 800 μM is prepared by adding assay buffer. Assay Protocol: • 1. 10 μl of serially diluted Compound working stock (start dose 40 μM) is added from assay ready plate to assay plate according to the plate map. • 2. Positive control (40 μM of standard inhibitor) and negative control (4% DMSO buffer) are added to the respective wells. • 3. 20 μl of Enzyme working stock is added to assay plate and gently mixed. • 4. The plate is incubated at 22° C. for 30 mins and spun at 130 g for 1 minute. • 5. After incubation, 10 μl of Substrate working stock is added to respective wells and mixed (Assay plate is maintained in dark after substrate addition). • 6. The plate is incubated at 22° C. for 60 mins and spun at 130 g for 1 minute. • 7. Fluorescence read (RFU) (Ex: 400 nm/Em: 505 nm) is taken after 60 mins in EnVision Multimode plate reader. Final Assay Concentration:
Data Analysis: • 1. The RFU read is analyzed to calculate percent inhibition by normalizing with positive and negative controls taken as 100% and 0% effect respectively in Microsoft excel. • 2. Graph is generated by putting the analyzed data in GraphPad prism 5.0 software to get IC50 value for each compound.

Granzyme B (human lymphocytes), sequence (P10144 21-247): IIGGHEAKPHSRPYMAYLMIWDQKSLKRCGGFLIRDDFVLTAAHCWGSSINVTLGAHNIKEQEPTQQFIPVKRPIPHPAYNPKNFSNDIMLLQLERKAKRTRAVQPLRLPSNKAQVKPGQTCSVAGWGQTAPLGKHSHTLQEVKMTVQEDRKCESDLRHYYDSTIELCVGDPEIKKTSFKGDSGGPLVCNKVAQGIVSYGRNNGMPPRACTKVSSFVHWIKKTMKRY

Turning to `CC[C@H](C)[C@H](NC(=O)COCCF)C(=O)N[C@H]1CCc2cccc3c2N(C1=O)[C@H](C(=O)NCc1nn[nH]n1)C3` [Compound C119, (2S,5S)-5-{(2S,3S)-2-[2-(2-Fluoro-ethoxy)-acetylamino]-3-methyl-pentanoylamino}-4-oxo-1,2,4,5,6,7-hexahydro-azepino[3,2,1-hi]indole-2-carboxylic acid (2H-tetrazol-5-ylmethyl)-amide], the IC50 is 1 to 300 nM.

As to `CCC(CC)[C@H](NC(=O)c1ccccc1)C(=O)N[C@H]1CCc2cccc3c2N(C1=O)[C@H](C(=O)NCc1c[nH]nn1)C3` [Compound C073, (2S,5S)-5-((S)-2-Benzoylamino-3-ethyl-pentanoylamino)-4-oxo-1,2,4,5,6,7-hexahydro-azepino[3,2,1-hi]indole-2-carboxylic acid (1H-[1,2,3]triazol-4-ylmethyl)-amide], the IC50 lay within 301 to 1000 nM.

On to `O=C(O)CC[C@H](NC(=O)Cc1csc2ccccc12)C(=O)N[C@H]1CCc2cccc3c2N(C1=O)[C@H](C(=O)NCc1c[nH]nn1)C3` [Compound C008, (S)-4-(2-Benzo[b]thiophen-3-yl-acetylamino)-4-{(2S,5S)-4-oxo-2-[(1H-[1,2,3]triazol-4-ylmethyl)-carbamoyl]-1,2,4,5,6,7-hexahydro-azepino[3,2,1-hi]indol-5-ylcarbamoyl}butyric acid], for which the IC50 was above 5000 nM.

Regarding `CC(=O)N[C@H](C(=O)N[C@H]1CCc2cccc3c2N(C1=O)[C@H](C(=O)N[C@@H](CC(=O)O)C(=O)O)C3)C(C)C` [Compound C092, (S)-2-{[(2S,5S)-5-((S)-2-Acetylamino-3-methyl-butyrylamino)-4-oxo-1,2,4,5,6,7-hexahydro-azepino[3,2,1-hi]indole-2-carbonyl]-amino}-succinic acid], the IC50 is above 5000 nM.

As for `CC[C@H](C)[C@H](NC(=O)COCCF)C(=O)N[C@H]1CCc2cccc3c2N(C1=O)[C@H](C(=O)NCc1nc(O)n[nH]1)C3` [Compound C164, (2S,5S)-5-{(2S,3S)-2-[2-(2-Fluoro-ethoxy)-acetylamino]-3-methyl-pentanoylamino}-4-oxo-1,2,4,5,6,7-hexahydro-azepino[3,2,1-hi]indole-2-carboxylic acid (5-hydroxy-2H-[1,2,4]triazol-3-ylmethyl)-amide], the IC50 was above 5000 nM.

Consider `CC[C@H](C)[C@H](NC(=O)Cc1nc2ccccc2o1)C(=O)N[C@H]1CCc2cccc3c2N(C1=O)[C@H](C(=O)NCc1c[nH]nn1)C3` [Compound C160, (2S,5S)-5-[(2S,3S)-2-(2-Benzooxazol-2-yl-acetylamino)-3-methyl-pentanoylamino]-4-oxo-1,2,4,5,6,7-hexahydro-azepino[3,2,1-hi]indole-2-carboxylic acid (1H-[1,2,3]triazol-4-ylmethyl)-amide], for which the IC50 fell in the range of 1 to 300 nM.

Take `CC[C@H](C)[C@H](NC(=O)COCCF)C(=O)N[C@H]1CCc2cccc3c2N(C1=O)[C@H](C(=O)NCc1ccc[nH]1)C3` [Compound C104, (2S,5S)-5-{(2S,3S)-2-[2-(2-Fluoro-ethoxy)-acetylamino]-3-methyl-pentanoylamino}-4-oxo-1,2,4,5,6,7-hexahydro-azepino[3,2,1-hi]indole-2-carboxylic acid (1H-pyrrol-2-ylmethyl)-amide]: the IC50 is above 5000 nM.

As to `CC([C@H](NC(=O)c1ccccc1)C(=O)N[C@H]1CCc2cccc3c2N(C1=O)[C@H](C(=O)NCc1c[nH]nn1)C3)C(F)(F)F` (stereo partly drawn) [Compound C055, (2S,5S)-5-((S)-2-Benzoylamino-4,4,4-trifluoro-3-methyl-butyrylamino)-4-oxo-1,2,4,5,6,7-hexahydro-azepino[3,2,1-hi]indole-2-carboxylic acid (1H-[1,2,3]triazol-4-ylmethyl)-amide], the IC50 lay in the range of 1 to 300 nM.

With `CC[C@H](C)[C@H](NC(=O)COCCF)C(=O)N[C@H]1CCc2cccc3c2N(C1=O)[C@H](C(=O)NCc1cnoc1)C3` [Compound C117, (2S,5S)-5-{(2S,3S)-2-[2-(2-Fluoro-ethoxy)-acetylamino]-3-methyl-pentanoylamino}-4-oxo-1,2,4,5,6,7-hexahydro-azepino[3,2,1-hi]indole-2-carboxylic acid (isoxazol-4-ylmethyl)-amide], the IC50 is above 5000 nM.

`COC(=O)CC[C@H](NC(=O)[C@@H]1Cc2cccc3c2N1C(=O)[C@@H](NC(=O)[C@@H](NC(C)=O)C(C)C)CC3)C(=O)OC` [Compound C095, (S)-2-{[(2S,5S)-5-((S)-2-Acetylamino-3-methyl-butyrylamino)-4-oxo-1,2,4,5,6,7-hexahydro-azepino[3,2,1-hi]indole-2-carbonyl]-amino}-pentanedioic acid dimethyl ester]: the IC50 was above 5000 nM.

Take `CC(C)[C@H](NC(=O)c1ccccc1F)C(=O)N[C@H]1CCc2cccc3c2N(C1=O)[C@H](C(=O)NCc1c[nH]nn1)C3` [Compound C049, (2S,5S)-5-[(S)-2-(2-Fluoro-benzoylamino)-3-methyl-butyrylamino]-4-oxo-1,2,4,5,6,7-hexahydro-azepino[3,2,1-hi]indole-2-carboxylic acid (1H-[1,2,3]triazol-4-ylmethyl)-amide]: the half-inhibitory concentration (IC50) was 301 to 1000 nM.

In the case of `Cc1ccc(C(=O)N[C@H](C(=O)N[C@H]2CCc3cccc4c3N(C2=O)[C@H](C(=O)NCc2c[nH]nn2)C4)C(C)C)cc1` [Compound C052, (2S,5S)-5-[(S)-3-Methyl-2-(4-methyl-benzoylamino)-butyrylamino]-4-oxo-1,2,4,5,6,7-hexahydro-azepino[3,2,1-hi]indole-2-carboxylic acid (1H-[1,2,3]triazol-4-ylmethyl)-amide], the IC50 lay in the range of 1 to 300 nM.

Turning to `CC[C@H](C)[C@H](NC(=O)COCCF)C(=O)N[C@H]1CCc2cccc3c2N(C1=O)[C@H](C(=O)NCc1cnc[nH]1)C3` [Compound C110, (2S,5S)-5-{(2S,3S)-2-[2-(2-Fluoro-ethoxy)-acetylamino]-3-methyl-pentanoylamino}-4-oxo-1,2,4,5,6,7-hexahydro-azepino[3,2,1-hi]indole-2-carboxylic acid (3H-imidazol-4-ylmethyl)-amide], the IC50 is above 5000 nM.

Consider `CC(=O)N[C@H](C(=O)N[C@H]1CCc2cccc3c2N(C1=O)[C@H](C(=O)NCc1c[nH]nn1)C3)C1CCCCC1` [Compound C080, (2S,5S)-5-((S)-2-Acetylamino-2-cyclohexyl-acetylamino)-4-oxo-1,2,4,5,6,7-hexahydro-azepino[3,2,1-hi]indole-2-carboxylic acid (1H-[1,2,3]triazol-4-ylmethyl)-amide], for which the IC50 was 301 to 1000 nM.

Turning to `CC[C@H](NC(=O)c1ccccc1)C(=O)N[C@H]1CCc2cccc3c2N(C1=O)[C@H](C(=O)NCc1c[nH]nn1)C3` [Compound C045, (2S,5S)-5-((S)-2-Benzoylamino-butyrylamino)-4-oxo-1,2,4,5,6,7-hexahydro-azepino[3,2,1-hi]indole-2-carboxylic acid (1H-[1,2,3]triazol-4ylmethyl)-amide], the IC50 fell in the range of 1000 to 5000 nM.

Take `O=C(N[C@@H](CO)C(=O)N[C@H]1CCc2cccc3c2N(C1=O)[C@H](C(=O)NCc1c[nH]nn1)C3)c1ccccc1` [Compound C040, (2S,5S)-5-((S)-2-Benzoylamino-3-hydroxy-propionylamino)-4-oxo-1,2,4,5,6,7-hexahydro-azepino[3,2,1-hi]indole-2-carboxylic acid (1H-[1,2,3]triazol-4-ylmethyl)-amide]: the IC50 was above 5000 nM.

On to `CC(=O)N[C@H]1CCc2cccc3c2N(C1=O)[C@H](C(=O)NCc1c[nH]nn1)C3` [Compound C148, (2S,5S)-5-Acetylamino-4-oxo-1,2,4,5,6,7-hexahydro-azepino[3,2,1-hi]indole-2-carboxylic acid (1H-[1,2,3]triazol-4-ylmethyl)-amide], for which the IC50 is above 5000 nM.

Broadly, the IC50 is the concentration that gives 50% inhibition.
